Assay results taken from US12528815B2, “5-amino-8-(4-pyridyl)-[1,2,4]triazolo[4,3-c]pyrimidin-3-one compounds for use against cancer” (Nxera Pharma UK Limited, priority 2020, dated 2026).

Assays:
[1] = biological target: T1, human adenosine A1 receptor (Homo sapiens, UniProt P30542); experiment: Inhibition binding assay, human adenosine A1 receptor membranes, [3H]DPCPX; conditions: 1 nM [3H]DPCPX, 25° C., 1 h; IC50 converted to Ki with Cheng-Prusoff; read-out: A1 pKi (converted)
T1 construct: expressed in transfected cells; host or cells: HEK293 cells infected with BacMam (the same paragraph also labels the preparation CHO-hA1)
T1 sequence (P30542 1-326): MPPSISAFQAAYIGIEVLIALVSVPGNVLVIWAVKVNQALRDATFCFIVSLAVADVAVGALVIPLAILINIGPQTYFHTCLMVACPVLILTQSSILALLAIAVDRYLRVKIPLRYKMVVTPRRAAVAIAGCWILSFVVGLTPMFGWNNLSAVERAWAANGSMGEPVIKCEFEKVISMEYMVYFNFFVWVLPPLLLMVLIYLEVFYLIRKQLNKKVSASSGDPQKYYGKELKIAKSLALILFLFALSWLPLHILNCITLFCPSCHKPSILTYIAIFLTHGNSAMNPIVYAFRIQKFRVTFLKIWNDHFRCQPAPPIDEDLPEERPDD
Procedure, shortened: (§1)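 Membranes from BacMam-infected HEK293 cells (0.2 μg A2A, 1.4 μg A1) incubated 1 h at 25° C with test compound and 1 nM [3H]ZM241385 (A2A; 50 mM Tris-HCl pH 7.4) or [3H]DPCPX (A1; plus 100 mM NaCl, 10 mM MgCl2). Nonspecific: 1 μM CGS15943 or DPCPX. Filtration, scintillation; IC50 converted to Ki via Cheng-Prusoff.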

[2] = biological target: T2, human adenosine A2A receptor (Homo sapiens, UniProt P29274); experiment: Inhibition binding assay, human adenosine A2A receptor membranes, [3H]ZM241385; conditions: 1 nM [3H]ZM241385, HEK293-hA2A membranes, 25° C., 1 h; IC50 converted to Ki with Cheng-Prusoff; read-out: A2A pKi (converted)
T2 construct: expressed in transfected cells; host or cells: HEK293 cells infected with BacMam
Procedure, shortened: as §1

T2 sequence (P29274 whole entry): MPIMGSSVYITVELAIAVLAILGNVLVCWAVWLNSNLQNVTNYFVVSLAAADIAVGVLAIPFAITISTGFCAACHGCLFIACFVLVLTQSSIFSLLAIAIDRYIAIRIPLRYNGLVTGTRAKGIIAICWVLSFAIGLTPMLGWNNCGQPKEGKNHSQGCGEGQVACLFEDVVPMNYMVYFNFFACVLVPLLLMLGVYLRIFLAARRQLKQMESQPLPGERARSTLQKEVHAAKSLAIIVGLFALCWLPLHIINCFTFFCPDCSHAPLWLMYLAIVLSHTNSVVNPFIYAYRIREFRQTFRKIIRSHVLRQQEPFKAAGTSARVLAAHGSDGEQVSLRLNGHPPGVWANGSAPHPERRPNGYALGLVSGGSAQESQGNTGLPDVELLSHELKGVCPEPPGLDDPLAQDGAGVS

| Ki [1] [nM] | Ki [2] [nM] | Structure (SMILES) |
| --- | --- | --- |
| 12.6 | 0.501 | COc1cc(C)nc(Cn2nc3c(-c4cc(C)nc(C)c4)c(-c4ccccc4)nc(N)n3c2=O)c1 [Example 1-29, 5-amino-8-(2,6-dimethyl-4-pyridyl)-2-[(4-methoxy-6-methyl-2-pyridyl)methyl]-7-phenyl-[1,2,4]triazolo[4,3-c]pyrimidin-3-one] |
| 316 | 1.26 | Cc1cc(-c2c(-c3ccccc3)nc(N)n3c(=O)n(CC45CC(C4)C5)nc23)cc(CO)n1 [Example 2-63, 5-amino-2-(3-bicyclo[1.1.1]pentanylmethyl)-8-[2-(hydroxymethyl)-6-methyl-4-pyridyl]-7-phenyl-[1,2,4]triazolo[4,3-c]pyrimidin-3-one] |
| > 3980 | 79.4 | Cc1cc(-c2c(-c3ccc(F)cc3)nc(N)n3c(=O)n(CCN4CCCCC4)nc23)cc(C)n1 [Example 2-104, 5-amino-8-(2,6-dimethyl-4-pyridyl)-7-(4-fluorophenyl)-2-[2-(1-piperidyl)ethyl]-[1,2,4]triazolo[4,3-c]pyrimidin-3-one] |
| 1000 | 25.1 | COc1ccc(Cn2nc3c(-c4cc(C)nc(C)c4)c(-c4ccccc4)nc(N)n3c2=O)nn1 [Example 1-33, 5-amino-8-(2,6-dimethyl-4-pyridyl)-2-[(6-methoxypyridazin-3-yl)methyl]-7-phenyl-[1,2,4]triazolo[4,3-c]pyrimidin-3-one] |
| 12.6 | 0.501 | Cc1cc(-c2c(-c3ccccc3)nc(N)n3c(=O)n(CC4(Cc5ccccc5)CCNCC4)nc23)cc(C)n1 [Example 1-102, 5-amino-2-[(4-benzyl-4-piperidyl)methyl]-8-(2,6-dimethyl-4-pyridyl)-7-phenyl-[1,2,4]triazolo[4,3-c]pyrimidin-3-one] |
| 251 | 2 | [2H]c1c([2H])c([2H])c(-c2nc(N)n3c(=O)n(Cc4ccc(F)c(N)n4)nc3c2-c2cc(C)nc(CO)c2)c([2H])c1[2H] [Example 1-51, 5-amino-2-[(6-amino-5-fluoro-2-pyridyl)methyl]-8-[2-(hydroxymethyl)-6-methyl-4-pyridyl]-7-(2,3,4,5,6-pentadeuteriophenyl)-[1,2,4]triazolo[4,3-c]pyrimidin-3-one] |
| 501 | 10 | CCOC(=O)NCCn1nc2c(-c3cc(C)nc(C)c3)c(-c3ccccc3)nc(N)n2c1=O [Example 2-12, ethyl N-[2-[5-amino-8-(2,6-dimethyl-4-pyridyl)-3-oxo-7-phenyl-[1,2,4]triazolo[4,3-c]pyrimidin-2-yl]ethyl]carbamate] |
| 31.6 | 0.316 | Cc1cc(-c2c(-c3ccccc3)nc(N)n3c(=O)n(CC45C6C7C8C6C4C8C75)nc23)cc(CO)n1 (stereo not shown) [Example 2-62, 5-amino-2-(cuban-1-ylmethyl)-8-[2-(hydroxymethyl)-6-methyl-4-pyridyl]-7-phenyl-[1,2,4]triazolo[4,3-c]pyrimidin-3-one] |
| > 3160 | 6.31 | Cc1cc(-c2c(N3CCCCC3)nc(N)n3c(=O)n(CCC(F)(F)F)nc23)cc(C)n1 [Example 3-2, 5-amino-8-(2,6-dimethyl-4-pyridyl)-7-(1-piperidyl)-2-(3,3,3-trifluoropropyl)-[1,2,4]triazolo[4,3-c]pyrimidin-3-one] |
| 1000 | 200 | Cc1cc(-c2c(-c3ccccc3)nc(N)n3c(=O)n(CC(N)=O)nc23)cc(C)n1 [Example 2-22, 2-[5-amino-8-(2,6-dimethyl-4-pyridyl)-3-oxo-7-phenyl-[1,2,4]triazolo[4,3-c]pyrimidin-2-yl]acetamide] |
| > 3160 | 316 | Cc1cc(-c2c(-c3ccccc3)nc(N)n3c(=O)n(CCN4C[C@@H](C)O[C@@H](C)C4)nc23)cc(C)n1 [Example 2-100, 5-amino-2-[2-((ds)-2,6-dimethylmorpholin-4-yl)ethyl]-8-(2,6-dimethyl-4-pyridyl)-7-phenyl-[1,2,4]triazolo[4,3-c]pyrimidin-3-one] |
| 251 | 2.51 | Nc1nc(-c2ccccc2)c(-c2cc(Cl)nc(C(F)(F)F)c2)c2nn(Cc3ccc(F)cn3)c(=O)n12 [Example 1-79, 5-amino-8-[2-chloro-6-(trifluoromethyl)-4-pyridyl]-2-[(5-fluoro-2-pyridyl)methyl]-7-phenyl-[1,2,4]triazolo[4,3-c]pyrimidin-3-one] |
| 251 | 2.51 | Cc1cc(-c2c(-c3ccccc3)nc(N)n3c(=O)n(Cc4cccnn4)nc23)cc(C)n1 [Example 1-5, 5-amino-8-(2,6-dimethyl-4-pyridyl)-7-phenyl-2-(pyridazin-3-ylmethyl)-[1,2,4]triazolo[4,3-c]pyrimidin-3-one] |
| 1000 | 6.31 | Cc1cc(-c2c(-c3ccccc3)nc(N)n3c(=O)n(CC4CCN(C(=O)OC(C)(C)C)CC4)nc23)cc(C)n1 [Example 2-67, tert-butyl 4-[[5-amino-8-(2,6-dimethyl-4-pyridyl)-3-oxo-7-phenyl-[1,2,4]triazolo[4,3-c]pyrimidin-2-yl]methyl]piperidine-1-carboxylate] |
| 63.1 | 0.2 | COc1ncccc1Cn1nc2c(-c3cc(C)nc(C)c3)c(-c3ccccc3)nc(N)n2c1=O [Example 1-28, 5-amino-8-(2,6-dimethyl-4-pyridyl)-2-[(2-methoxy-3-pyridyl)methyl]-7-phenyl-[1,2,4]triazolo[4,3-c]pyrimidin-3-one] |
| 3.98 | 0.126 | Cc1cc(-c2c(-c3ccccc3)nc(N)n3c(=O)n(Cc4ccccc4CC4CCNCC4)nc23)cc(C)n1 [Example 1-32, 5-amino-8-(2,6-dimethyl-4-pyridyl)-7-phenyl-2-[[2-(4-piperidylmethyl)phenyl]methyl]-[1,2,4]triazolo[4,3-c]pyrimidin-3-one] |
| 1000 | 39.8 | CNC(=O)c1cc(NCCn2nc3c(-c4cc(C)nc(C)c4)c(-c4ccccc4)nc(N)n3c2=O)ccc1Cl [Example 1-91, 5-[2-[5-amino-8-(2,6-dimethyl-4-pyridyl)-3-oxo-7-phenyl-[1,2,4]triazolo[4,3-c]pyrimidin-2-yl]ethylamino]-2-chloro-N-methyl-benzamide] |
| 79.4 | 0.126 | Cc1cc(-c2c(-c3ccccc3)nc(N)n3c(=O)n(Cc4ccc(F)cn4)nc23)cc(Cl)n1 [Example 1-76, 5-amino-8-(2-chloro-6-methyl-4-pyridyl)-2-[(5-fluoro-2-pyridyl)methyl]-7-phenyl-[1,2,4]triazolo[4,3-c]pyrimidin-3-one] |
| 794 | 10 | Cc1cc(-c2c(-c3ccccc3)nc(N)n3c(=O)n(Cc4ccncc4)nc23)cc(C)n1 [Example 1-12, 5-amino-8-(2,6-dimethyl-4-pyridyl)-7-phenyl-2-(4-pyridylmethyl)-[1,2,4]triazolo[4,3-c]pyrimidin-3-one] |
| 126 | 1.58 | Cc1cc(-c2c(-c3ccccc3)nc(N)n3c(=O)n(CC4CCCCO4)nc23)cc(C)n1 (single isomer, unassigned) [Example 2-82-iso-1, 5-amino-8-(2,6-dimethyl-4-pyridyl)-7-phenyl-2-(tetrahydropyran-2-ylmethyl)-[1,2,4]triazolo[4,3-c]pyrimidin-3-one] |
| 794 | 5.01 | Cc1cc(-c2c(-c3ccccc3)nc(N)n3c(=O)n(CCc4ccccn4)nc23)cc(C)n1 [Example 1-86, 5-amino-8-(2,6-dimethyl-4-pyridyl)-7-phenyl-2-[2-(2-pyridyl)ethyl]-[1,2,4]triazolo[4,3-c]pyrimidin-3-one] |
| > 3160 | 200 | COC(=O)c1nc(N)n2c(=O)n(CCC(F)(F)F)nc2c1-c1cc(C)nc(C)c1 [Example 3-6, methyl 5-amino-8-(2,6-dimethyl-4-pyridyl)-3-oxo-2-(3,3,3-trifluoropropyl)-[1,2,4]triazolo[4,3-c]pyrimidine-7-carboxylate] |
| 251 | 20 | Cc1cc(-c2c(-c3ccccc3)nc(N)n3c(=O)n(CCc4ccc(F)cc4)nc23)cc(C)n1 [Example 1-83, 5-amino-8-(2,6-dimethyl-4-pyridyl)-2-[2-(4-fluorophenyl)ethyl]-7-phenyl-[1,2,4]triazolo[4,3-c]pyrimidin-3-one] |
| 1 | 0.316 | Cc1cc(-c2c(-c3ccccc3)nc(N)n3c(=O)n(Cc4ccccc4C)nc23)cc(C)n1 [Example 1-17, 5-amino-8-(2,6-dimethyl-4-pyridyl)-2-(o-tolylmethyl)-7-phenyl-[1,2,4]triazolo[4,3-c]pyrimidin-3-one] |
| 251 | 10 | Cc1cc(-c2c(-c3ccccc3)nc(N)n3c(=O)n(C(C)c4cccnc4)nc23)cc(C)n1 (stereo not shown) [Example 1-27, 5-amino-8-(2,6-dimethyl-4-pyridyl)-7-phenyl-2-[1-(3-pyridyl)ethyl]-[1,2,4]triazolo[4,3-c]pyrimidin-3-one] |
| > 3160 | 631 | Cc1cc(-c2c(Cl)nc(N)n3c(=O)n(CCC(F)(F)F)nc23)cc(C)n1 [Example 3-5, 5-amino-7-chloro-8-(2,6-dimethyl-4-pyridyl)-2-(3,3,3-trifluoropropyl)-[1,2,4]triazolo[4,3-c]pyrimidin-3-one] |
